Source: ChEMBL document CHEMBL1138747, “Synthesis and structure--activity relationship in a class of indolebutylpiperazines as dual 5-HT(1A) receptor agonists and serotonin reuptake inhibitors” (J Med Chem, 2004)

What was measured:
[1] = target: 5-hydroxytryptamine receptor 1B (Rattus norvegicus, UniProt P28564); assay: Inhibition of rat hydroxytryptamine 1B receptor
[2] = target: 5-hydroxytryptamine receptor 4 (Rattus norvegicus, UniProt Q62758); assay: Inhibition of rat hydroxytryptamine 4 receptor
[3] = Inhibition of histamine H2 receptor
[4] = target: T1, Adrenergic receptor alpha-1 (Homo sapiens, UniProt P35348+P25100+P35368); assay: Inhibition of alpha-1-adrenergic receptor; type: protein assay
T1 sequence (P35348 whole entry): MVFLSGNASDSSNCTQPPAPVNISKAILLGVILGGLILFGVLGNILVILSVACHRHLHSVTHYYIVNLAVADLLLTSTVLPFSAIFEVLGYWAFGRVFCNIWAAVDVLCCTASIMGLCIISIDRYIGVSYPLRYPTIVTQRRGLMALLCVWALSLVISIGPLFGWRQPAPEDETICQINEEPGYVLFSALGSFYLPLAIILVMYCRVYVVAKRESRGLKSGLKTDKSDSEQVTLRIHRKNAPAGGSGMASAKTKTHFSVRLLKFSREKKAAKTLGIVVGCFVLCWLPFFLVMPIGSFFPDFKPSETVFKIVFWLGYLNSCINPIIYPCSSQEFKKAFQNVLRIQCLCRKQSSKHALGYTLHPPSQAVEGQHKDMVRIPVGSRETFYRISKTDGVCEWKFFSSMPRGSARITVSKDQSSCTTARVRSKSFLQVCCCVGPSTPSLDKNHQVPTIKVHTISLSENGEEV
T1 sequence (P25100 whole entry): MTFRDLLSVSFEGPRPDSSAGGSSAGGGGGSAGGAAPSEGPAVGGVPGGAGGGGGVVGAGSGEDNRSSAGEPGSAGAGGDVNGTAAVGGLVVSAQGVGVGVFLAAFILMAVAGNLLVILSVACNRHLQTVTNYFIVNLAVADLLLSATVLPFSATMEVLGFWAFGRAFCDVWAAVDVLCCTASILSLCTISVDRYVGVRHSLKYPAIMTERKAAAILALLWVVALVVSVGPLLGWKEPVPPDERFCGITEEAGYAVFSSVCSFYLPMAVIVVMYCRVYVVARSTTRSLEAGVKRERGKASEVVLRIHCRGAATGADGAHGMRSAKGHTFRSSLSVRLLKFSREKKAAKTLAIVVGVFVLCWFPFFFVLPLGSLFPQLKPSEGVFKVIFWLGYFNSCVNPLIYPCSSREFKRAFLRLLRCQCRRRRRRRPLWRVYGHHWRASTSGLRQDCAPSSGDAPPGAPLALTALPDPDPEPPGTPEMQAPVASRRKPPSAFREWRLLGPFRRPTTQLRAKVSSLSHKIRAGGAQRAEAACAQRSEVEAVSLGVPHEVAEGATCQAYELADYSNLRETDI
T1 sequence (P35368 whole entry): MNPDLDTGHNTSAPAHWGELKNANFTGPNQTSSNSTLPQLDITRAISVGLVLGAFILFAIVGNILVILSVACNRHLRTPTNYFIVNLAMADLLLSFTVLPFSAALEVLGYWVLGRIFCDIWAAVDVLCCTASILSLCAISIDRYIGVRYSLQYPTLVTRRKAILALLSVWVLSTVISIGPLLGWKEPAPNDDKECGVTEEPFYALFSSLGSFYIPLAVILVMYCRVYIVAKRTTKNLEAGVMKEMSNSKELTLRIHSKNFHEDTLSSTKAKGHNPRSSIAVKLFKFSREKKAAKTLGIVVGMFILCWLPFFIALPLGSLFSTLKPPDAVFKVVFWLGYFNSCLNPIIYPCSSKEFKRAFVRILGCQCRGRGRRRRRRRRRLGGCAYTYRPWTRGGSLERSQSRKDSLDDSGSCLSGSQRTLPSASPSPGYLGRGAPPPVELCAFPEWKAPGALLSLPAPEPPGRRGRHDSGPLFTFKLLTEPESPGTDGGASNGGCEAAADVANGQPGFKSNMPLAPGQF

[5] = target: T2, Adrenergic receptor alpha-2 (Homo sapiens, UniProt P08913+P18825+P18089); assay: Inhibition of alpha-2-adrenergic receptor; type: protein assay
T2 sequence (P08913 whole entry): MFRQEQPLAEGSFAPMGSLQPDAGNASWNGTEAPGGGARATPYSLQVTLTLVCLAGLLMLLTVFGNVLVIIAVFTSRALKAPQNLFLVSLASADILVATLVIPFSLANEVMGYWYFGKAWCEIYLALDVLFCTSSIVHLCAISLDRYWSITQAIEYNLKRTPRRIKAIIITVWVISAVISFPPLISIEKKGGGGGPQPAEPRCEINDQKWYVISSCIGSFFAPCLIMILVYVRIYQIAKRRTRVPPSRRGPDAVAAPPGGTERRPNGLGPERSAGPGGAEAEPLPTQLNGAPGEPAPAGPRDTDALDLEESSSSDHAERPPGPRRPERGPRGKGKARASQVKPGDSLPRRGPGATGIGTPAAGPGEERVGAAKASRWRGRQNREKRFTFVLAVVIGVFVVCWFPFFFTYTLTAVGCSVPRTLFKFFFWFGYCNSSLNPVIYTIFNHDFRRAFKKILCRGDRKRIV
T2 sequence (P18825 whole entry): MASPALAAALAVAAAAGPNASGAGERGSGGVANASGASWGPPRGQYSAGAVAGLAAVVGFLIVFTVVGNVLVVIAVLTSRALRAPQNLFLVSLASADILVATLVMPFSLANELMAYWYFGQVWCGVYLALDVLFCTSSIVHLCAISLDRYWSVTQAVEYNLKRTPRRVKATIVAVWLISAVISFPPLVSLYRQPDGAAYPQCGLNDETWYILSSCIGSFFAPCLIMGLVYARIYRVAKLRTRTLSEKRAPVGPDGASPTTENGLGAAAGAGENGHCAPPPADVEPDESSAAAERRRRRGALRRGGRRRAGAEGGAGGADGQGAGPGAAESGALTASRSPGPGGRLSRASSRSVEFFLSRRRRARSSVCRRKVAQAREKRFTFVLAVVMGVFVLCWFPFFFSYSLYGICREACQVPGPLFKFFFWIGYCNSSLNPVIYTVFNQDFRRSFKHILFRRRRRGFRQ
T2 sequence (P18089 whole entry): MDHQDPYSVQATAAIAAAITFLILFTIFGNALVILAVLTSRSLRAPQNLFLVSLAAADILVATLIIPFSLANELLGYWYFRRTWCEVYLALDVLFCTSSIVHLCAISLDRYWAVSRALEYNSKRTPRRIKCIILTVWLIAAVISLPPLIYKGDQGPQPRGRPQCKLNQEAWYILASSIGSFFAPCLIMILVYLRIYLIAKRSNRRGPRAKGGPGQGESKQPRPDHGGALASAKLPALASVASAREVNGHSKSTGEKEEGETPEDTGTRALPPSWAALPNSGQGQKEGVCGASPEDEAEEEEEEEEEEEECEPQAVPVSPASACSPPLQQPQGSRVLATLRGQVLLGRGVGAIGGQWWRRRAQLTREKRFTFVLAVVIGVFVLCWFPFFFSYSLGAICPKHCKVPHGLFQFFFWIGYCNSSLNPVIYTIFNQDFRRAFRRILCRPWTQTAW

5-hydroxytryptamine receptor 4, sequence (Q62758 whole entry): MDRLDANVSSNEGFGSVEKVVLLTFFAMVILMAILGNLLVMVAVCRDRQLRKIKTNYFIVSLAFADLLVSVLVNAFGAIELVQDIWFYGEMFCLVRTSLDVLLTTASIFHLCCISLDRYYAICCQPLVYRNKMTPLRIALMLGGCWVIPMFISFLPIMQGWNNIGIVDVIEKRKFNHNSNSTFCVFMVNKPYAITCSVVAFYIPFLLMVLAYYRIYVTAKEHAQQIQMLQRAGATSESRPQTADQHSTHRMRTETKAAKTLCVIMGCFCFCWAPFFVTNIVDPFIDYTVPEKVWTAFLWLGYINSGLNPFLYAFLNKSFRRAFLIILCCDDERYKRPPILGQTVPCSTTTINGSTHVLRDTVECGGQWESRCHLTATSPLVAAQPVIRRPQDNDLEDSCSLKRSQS
5-hydroxytryptamine receptor 1B, sequence (P28564 whole entry): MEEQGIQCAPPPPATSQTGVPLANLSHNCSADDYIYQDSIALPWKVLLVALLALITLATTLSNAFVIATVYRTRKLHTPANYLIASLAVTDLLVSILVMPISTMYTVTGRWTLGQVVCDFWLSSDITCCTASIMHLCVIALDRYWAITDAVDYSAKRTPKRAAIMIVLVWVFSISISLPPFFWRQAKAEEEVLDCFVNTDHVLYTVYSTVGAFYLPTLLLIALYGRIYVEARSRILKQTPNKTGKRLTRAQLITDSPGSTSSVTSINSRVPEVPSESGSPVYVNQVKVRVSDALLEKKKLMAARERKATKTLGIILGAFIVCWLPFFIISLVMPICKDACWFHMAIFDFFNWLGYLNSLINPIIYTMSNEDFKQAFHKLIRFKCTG

IC50 [1]: 5000 nM | IC50 [2]: 252 nM | IC50 [3]: > 1000 nM | IC50 [4]: 1980 nM | IC50 [5]: 6000 nM
Compound: N#Cc1ccc2[nH]cc(CCCCN3CCN(c4ccc5oc(C(N)=O)cc5c4)CC3)c2c1 [VILAZODONE]
